Test results: patent EP4585599A1, “NITROGEN-CONTAINING FUSED RING COMPOUND, INTERMEDIATE THEREOF, PREPARATION METHOD THEREFOR AND USE THEREOF” (Hangzhou Synrx Therapeutics Biomedical Technology Co., Ltd., priority 2022, dated 2024)
In brackets after ≈: the same amount, converted by molar mass. Read-outs that look alike come from different tables or passages of the source.

Legend:
[1] = Mouse PK assay after oral administration; conditions: for MRT / bioavailability / half-life: mouse, po; for MRT / bioavailability / half-life / Area under curve (0-t; hr * ng/mL) / Peak concentration: plasma; for Time to peak / Area under curve (0-t; hr * ng/mL) / Peak concentration: mice, oral
[2] = Solubility assay; conditions: pH 7.4, aqueous buffer, kinetic from dmso stock; for solubility at 2 h: phosphate buffer
[3] = molecular target: T1, helicase domain of the Pol θ protein (Homo sapiens, UniProt O75417); test: Biochemical Activity Assay (ADP Glo Assay) of Pol θ inhibitor, ATPase activity
T1 construct: The helicase domain of the Pol θ protein was purified from insect protein expression system; made in house; host or cells: insect protein expression system

[4] = cells; conditions: Homo sapiens, DLD-1, 240 h
[5] = in vitro; conditions: mouse, microsomes, pH 7.4
[6] = read-out: Cell viability assay IC50
[7] = Metabolic stability of mouse liver microsome assay; conditions: liver microsomes, pH 7.4
[8] = mouse, microsomes
[9] = ADP-Glo assay, ATPase activity of Pol θ helicase domain, ssDNA substrate; read-out: Biochemical assay IC50
[10] = read-out: Cell viability assay IC50 (nM)
[11] = read-out: Cell viability assay IC50 (nM), CTG assay, CellTiter Glo, read on Day 10, cell line not given

T1 sequence (O75417 102-554 limits assumed): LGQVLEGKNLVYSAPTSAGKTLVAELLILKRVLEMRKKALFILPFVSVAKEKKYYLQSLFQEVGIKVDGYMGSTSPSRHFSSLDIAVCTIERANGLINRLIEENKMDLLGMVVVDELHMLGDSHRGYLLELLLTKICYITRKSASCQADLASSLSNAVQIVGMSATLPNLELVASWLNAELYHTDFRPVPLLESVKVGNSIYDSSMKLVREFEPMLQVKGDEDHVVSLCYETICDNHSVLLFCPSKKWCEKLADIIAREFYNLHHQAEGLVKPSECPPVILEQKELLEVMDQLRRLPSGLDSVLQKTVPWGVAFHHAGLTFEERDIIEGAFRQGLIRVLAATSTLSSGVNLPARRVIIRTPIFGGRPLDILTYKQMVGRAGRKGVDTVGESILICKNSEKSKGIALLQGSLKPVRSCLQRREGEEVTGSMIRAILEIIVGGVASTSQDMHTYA

| SMILES | solubility at 2 h [2] [µM] | IC50 [3, 9] [nM] | Time to peak ([1]; administration dose 30 mg/kg) [h] | Area under curve (0-t; hr * ng/mL) ([1]; administration dose 30 mg/kg) [µg·h/mL] | Peak concentration ([1]; administration dose 30 mg/kg) [ng/mL] | Half-life (T1/2, min) [8] | MRT ([1]; male, ICR, 30 mg/kg) [h] | bioavailability ([1]; male, ICR, 30 mg/kg) [%] | half-life ([1]; male, ICR, 30 mg/kg) [h] | IC50 [4, 10] [nM] | half-life at 1 µM [5] [h] | IC50 [4, 11] [nM] | further results |
| --- | --- | --- | --- | --- | --- | --- | --- | --- | --- | --- | --- | --- | --- |
| COc1cnc(Cl)cc1-c1cc(C)ncc1C(=O)Nc1nc2ccc(N3CCC(O)CC3)nc2s1 [Example 46] | 61.5 (≈ 31.4 µg/mL) | 8.31 |  |  |  |  |  |  |  | < 100 | 7.9 |  | MRT ([1]; male, ICR, 25 mg/kg): 4.13 h; bioavailability ([1]; male, ICR, 25 mg/kg): 127%; half-life ([1]; male, ICR, 25 mg/kg): 1.59 h; Time to peak ([1]; administration dose 25 mg/kg): 2.0 h; Area under curve (0-t; hr * ng/mL) ([1]; administration dose 25 mg/kg): 46.041 µg·h/mL; Peak concentration ([1]; administration dose 25 mg/kg): 7217 ng/mL; IC50 ([3]; ADP-Glo, ssDNA substrate, 60 min at room temperature; read-out: Biochemical assay IC50): < 50 nM; IC50 [6]: 60.7 nM |
| COc1cnc(Cl)cc1-c1cc(C)ncc1C(=O)Nc1nc2cnc(-c3c(C)noc3C)cc2s1 [Example 155] |  |  | 1.0 | 321.917 | 43083 |  |  |  |  | 19.2 |  |  | MRT ([1]; 30 mg/kg): 4.56 h; half-life ([1]; 30 mg/kg): 2.26 h; solubility ([2]; 0.1 m sodium phosphate buffer): 7.81 µM (≈ 3.96 µg/mL); IC50 ([3]; read-out: Biochemical assay IC50; ADP-Glo assay, ATPase activity of Pol θ helicase domain, ssDNA substrate): 5.75 nM; half-life at 1 µM [7]: 11.6 h |
| COc1cnc(Cl)c(F)c1-c1cc(C)ncc1C(=O)Nc1nc2cnc(-c3c(C)nnn3C)cc2s1 [Example 172] | 63.7 (≈ 33.4 µg/mL) | 2.84 | 0.25 | 429.051 | 43555 | ∞ | 5.91 | 206 | 5.1 |  |  |  |  |
| COc1cnc(C(F)F)cc1-c1cc(C)ncc1C(=O)Nc1nc2cnc(-c3c(C)nnn3C)cc2s1 [Example 180, 2'-(difluoromethyl)-N-(6-(1,4-dimethyl-1H-1,2,3-triazol-5-yl)thiazolo[4,5-c]pyridin-2-yl) -5'-methoxy-6-methyl-[4,4'-bipyridine]-3-carboxamide] | 91.1 (≈ 47.6 µg/mL) | 1.63 | 1.08 | 176.788 | 44133 | ∞ | 2.88 |  | 1.75 |  |  | 5.62 |  |

The next lines start with results.

| solubility at 2 h [2] [µM] | IC50 [3, 9] [nM] | Time to peak ([1]; administration dose 30 mg/kg) [h] | Area under curve (0-t; hr * ng/mL) ([1]; administration dose 30 mg/kg) [µg·h/mL] | Peak concentration ([1]; administration dose 30 mg/kg) [ng/mL] | Half-life (T1/2, min) [8] | MRT ([1]; male, ICR, 30 mg/kg) [h] | bioavailability ([1]; male, ICR, 30 mg/kg) [%] | half-life ([1]; male, ICR, 30 mg/kg) [h] | SMILES | IC50 [4, 10] [nM] | half-life at 1 µM [5] [h] | IC50 [4, 11] [nM] | further results |
| --- | --- | --- | --- | --- | --- | --- | --- | --- | --- | --- | --- | --- | --- |
| 61.8 (≈ 32.4 µg/mL) | 3.31 | 0.75 | 385.297 | 89917 |  | 3.38 | 178 | 2.2 | COc1cnc(Cl)cc1-c1cc(C)ncc1C(=O)Nc1nc2cnc(-c3c(C)nnn3C)c(F)c2s1 [Example 216] |  | 28.9 | < 1.52 |  |
| 82.6 (≈ 44.8 µg/mL) | 3.63 | 0.67 | 852.39 | 156130 | ∞ | 3.95 | 259 | 2.16 | COc1cnc(Cl)c(F)c1-c1cc(C)ncc1C(=O)Nc1nc2cnc(-c3c(C)nnn3C)c(F)c2s1 [Example 217] |  |  | < 1.52 |  |
